Measurements reported in patent US20230017045A1, “PYRIDINE AND PYRIMIDINE CARBOXYLATE HERBICIDES AND METHODS OF USE THEREOF” (Dow AgroSciences LLC, priority 2017, published 2023).
Like-named read-outs stand apart in the source and are kept apart here.

System: test plant species
Test: Post-emergent herbicidal activity test (greenhouse, foliar spray, visual growth reduction)
Assay type: in vivo
Conditions: post-emergence, 336 h, 140 g ai/ha
In short: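 Visual scoring 14 d after treatment (0 = no injury, 100 = complete control) against nontreated and solvent-blank plants gave percent growth reduction. Foliar application used a track sprayer delivering 187 L/ha to seedlings at first or second true leaf stage, grown at 23–29 °C day, ~15 h photoperiod.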

[1] = ECHCG: barnyardgrass (Echinochloa crus-galli), 14 days after application, read-out: Visual Growth Reduction (%) 14 Days After Application, ECHCG
[2] = IPOHE: ivy-leaf morning glory (Ipomoea hederacea), 14 days after application, read-out: Visual Growth Reduction (%) 14 Days After Application, IPOHE
[3] = KCHSC: kochia (Bassia scoparia), 14 days after application, read-out: Visual Growth Reduction (%) 14 Days After Application, KCHSC
[4] = ORYSA: rice (Oryza sativa), 14 days after application, read-out: Visual Growth Reduction (%) 14 Days After Application, ORYSA
[5] = SETFA: giant foxtail (Setaria faberi), 14 days after application, read-out: Visual Growth Reduction (%) 14 Days After Application, SETFA
[6] = SORVU: grain sorghum (Sorghum vulgare), 14 days after application, read-out: Visual Growth Reduction (%) 14 Days After Application, SORVU
[7] = STEME: common chickweed (Stellaria media), 14 days after application, read-out: Visual Growth Reduction (%) 14 Days After Application, STEME
[8] = TRZAS: wheat, spring (Triticum aestivum), 14 days after application, read-out: Visual Growth Reduction (%) 14 Days After Application, TRZAS
[9] = blackgrass (Alopecurus myosuroides), 14 Days After Application, read-out: Visual Growth Reduction (%) ALOMY
[10] = crabgrass (Digitaria sanguinalis), 14 Days After Application, read-out: Visual Growth Reduction (%) DIGSA
[11] = lambsquarters (Chenopodium album), 14 Days After Application, read-out: Visual Growth Reduction (%) CHEAL
[12] = redroot pigweed (Amaranthus retroflexus), 14 Days After Application, read-out: Visual Growth Reduction (%) AMARE
[13] = wild oat (Avena fatua), 14 Days After Application, read-out: Visual Growth Reduction (%) AVEFA
[14] = yellow nutsedge (Cyperus esculentus), 14 Days After Application, read-out: Visual Growth Reduction (%) CYPES
[15] = ALOMY: blackgrass (Alopecurus myosuroides), 14 days after application, read-out: Visual Growth Reduction (%) 14 Days After Application, ALOMY
[16] = AMARE: redroot pigweed (Amaranthus retroflexus), 14 days after application, read-out: Visual Growth Reduction (%) 14 Days After Application, AMARE
[17] = AVEFA: wild oat (Avena fatua), 14 days after application, read-out: Visual Growth Reduction (%) 14 Days After Application, AVEFA
[18] = CHEAL: lambsquarters (Chenopodium album), 14 days after application, read-out: Visual Growth Reduction (%) 14 Days After Application, CHEAL
[19] = CIRAR: canada thistle (Cirsium arvense), 14 days after application, read-out: Visual Growth Reduction (%) 14 Days After Application, CIRAR
[20] = CYPES: yellow nutsedge (Cyperus esculentus), 14 days after application, read-out: Visual Growth Reduction (%) 14 Days After Application, CYPES
[21] = DIGSA: crabgrass (Digitaria sanguinalis), 14 days after application, read-out: Visual Growth Reduction (%) 14 Days After Application, DIGSA

| SMILES | pest or weed control at 140 g/ha [1] | pest or weed control at 140 g/ha [2] | pest or weed control at 140 g/ha [3] | pest or weed control at 140 g/ha [4] | pest or weed control at 140 g/ha [5] | pest or weed control at 140 g/ha [6] | pest or weed control at 140 g/ha [7] | pest or weed control at 140 g/ha [8] | pest or weed control at 140 g/ha [9] | pest or weed control at 140 g/ha [10] | pest or weed control at 140 g/ha [11] | pest or weed control at 140 g/ha [12] | pest or weed control at 140 g/ha [13] | pest or weed control at 140 g/ha [15] | pest or weed control at 140 g/ha [16] | pest or weed control at 140 g/ha [17] | pest or weed control at 140 g/ha [18] | pest or weed control at 140 g/ha [19] | pest or weed control at 140 g/ha [20] | pest or weed control at 140 g/ha [21] | other results |
| --- | --- | --- | --- | --- | --- | --- | --- | --- | --- | --- | --- | --- | --- | --- | --- | --- | --- | --- | --- | --- | --- |
| COC(=O)c1nc(-c2cc(SC)c(C(F)(F)F)cc2Cl)c(F)cc1Cl [F332, Methyl 3-chloro-6-(2-chloro-5-(methylthio)-4-(trifluoromethyl)phenyl) 5-fluoropicolinate] | 0 to 29% | 0 to 29% | 30 to 44% | 0 to 29% | 0 to 29% | 0 to 29% | 0 to 29% | 0 to 29% | 0 to 29% | 0 to 29% | 0 to 29% | 0 to 29% | 0 to 29% | – | – | – | – | – | – | – | pest or weed control at 140 g/ha [14]: 0 to 29% |
| COC(=O)c1nc(-c2ccc(C(F)(F)F)cc2Br)ccc1Cl [F30, Methyl 6-(2-bromo-4-trifluoromethyl)phenyl-3-chloropicolinate] | 45 to 59% | 95 to 100% | 75 to 84% | 0 to 29% | 45 to 59% | 85 to 94% | 0 to 29% | 60 to 74% | – | – | – | – | – | 60 to 74% | 95 to 100% | 45 to 59% | 95 to 100% | 85 to 94% | 0 to 29% | 85 to 94% | – |
| COC(=O)c1nc(-c2ccc(SC(F)(F)F)cc2)c(F)cc1Cl [F91, Methyl 3-chloro-5-fluoro-6-(4-((trifluoromethyl)thio)phenyl) picolinate] | 0 to 29% | 30 to 44% | 0 to 29% | 0 to 29% | 0 to 29% | 0 to 29% | 0 to 29% | 0 to 29% | – | – | – | – | – | 0 to 29% | 0 to 29% | 0 to 29% | 0 to 29% | 30 to 44% | 0 to 29% | 0 to 29% | – |
| O=C(O)c1nc(-c2cnc(C(F)(F)F)cc2Cl)ccc1Cl [F205, 4′,5-Dichloro-6′-(trifluoromethyl)-[2,3′-bipyridine]-6-carboxylic acid] | 45 to 59% | 95 to 100% | 0 to 29% | 0 to 29% | 75 to 84% | 75 to 84% | 0 to 29% | 0 to 29% | 0 to 29% | 45 to 59% | 75 to 84% | 30 to 44% | 0 to 29% | – | – | – | – | – | – | – | pest or weed control at 140 g/ha (canada thistle (Cirsium arvense), 14 Days After Application, read-out: Visual Growth Reduction (%) CIRAR): 75 to 84%; pest or weed control at 140 g/ha [14]: 0 to 29% |
| COC(=O)c1nc(-c2ncc(Cl)cc2Cl)ccc1Cl [F191, Methyl 3′,5,5′-trichloro-[2,2′-bipyridine]-6-carboxylate] | 75 to 84% | 95 to 100% | 60 to 74% | 0 to 29% | 85 to 94% | 85 to 94% | 0 to 29% | 0 to 29% | – | – | – | – | – | 0 to 29% | 85 to 94% | 0 to 29% | 95 to 100% | 85 to 94% | 45 to 59% | 85 to 94% | – |
